From the supplement of paper PMC10307832

Tests used:
Experiment in all cases: relative viability (nuclei count vs DMSO), 5 days (fraction); higher = more cells survive
Sunitinib + Lapatinib = compound: CCN(CC)CCNC(=O)c1c(C)[nH]c(/C=C2\C(=O)Nc3ccc(F)cc32)c1C [Sunitinib] + CS(=O)(=O)CCNCc1ccc(-c2ccc3ncnc(Nc4ccc(OCc5cccc(F)c5)c(Cl)c4)c3c2)o1 [Lapatinib] (partner 2 µM)
In short: (§1)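 Each reported value is a median over duplicate plates. It expresses relative viability: treated-well nuclei count divided by vehicle-well nuclei count. Lung cancer cell lines in 1536-well plates were dosed by pin tool a day after seeding, alone with one drug or with a fixed anchor-drug dose plus five library-drug doses (not always all listed) in √10 steps, and nuclei were counted after 5 days.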

Sunitinib + Olaparib = compound: CCN(CC)CCNC(=O)c1c(C)[nH]c(/C=C2\C(=O)Nc3ccc(F)cc32)c1C [Sunitinib] + O=C(c1cc(Cc2n[nH]c(=O)c3ccccc23)ccc1F)N1CCN(C(=O)C2CC2)CC1 [Olaparib] (partner 8 µM)
In short: as §1

Sunitinib + Phenformin = compound: CCN(CC)CCNC(=O)c1c(C)[nH]c(/C=C2\C(=O)Nc3ccc(F)cc32)c1C [Sunitinib] + N=C(N)NC(=N)NCCc1ccccc1 [Phenformin] (partner 250 µM)
In short: as §1

Sunitinib + Trametinib = compound: CCN(CC)CCNC(=O)c1c(C)[nH]c(/C=C2\C(=O)Nc3ccc(F)cc32)c1C [Sunitinib] + CC(=O)Nc1cccc(-n2c(=O)n(C3CC3)c(=O)c3c(Nc4ccc(I)cc4F)n(C)c(=O)c(C)c32)c1 [Trametinib] (partner 0.02 µM)
In short: as §1

| Cell Line | relative viability (Sunitinib + Lapatinib; first compound 0.02 µM) | relative viability (Sunitinib + Lapatinib; first compound 0.06325 µM) | relative viability (Sunitinib + Lapatinib; first compound 0.2 µM) | relative viability (Sunitinib + Lapatinib; first compound 0.6325 µM) | relative viability (Sunitinib + Lapatinib; first compound 2 µM) | relative viability (Sunitinib + Olaparib; first compound 0.02 µM) | relative viability (Sunitinib + Olaparib; first compound 0.06325 µM) | relative viability (Sunitinib + Olaparib; first compound 0.2 µM) | relative viability (Sunitinib + Olaparib; first compound 0.6325 µM) | relative viability (Sunitinib + Olaparib; first compound 2 µM) | relative viability (Sunitinib + Phenformin; first compound 0.02 µM) | relative viability (Sunitinib + Phenformin; first compound 0.06325 µM) | relative viability (Sunitinib + Phenformin; first compound 0.2 µM) | relative viability (Sunitinib + Phenformin; first compound 0.6325 µM) | relative viability (Sunitinib + Phenformin; first compound 2 µM) | relative viability (Sunitinib + Trametinib; first compound 0.02 µM) | relative viability (Sunitinib + Trametinib; first compound 0.06325 µM) | relative viability (Sunitinib + Trametinib; first compound 0.2 µM) | relative viability (Sunitinib + Trametinib; first compound 0.6325 µM) | relative viability (Sunitinib + Trametinib; first compound 2 µM) |
| --- | --- | --- | --- | --- | --- | --- | --- | --- | --- | --- | --- | --- | --- | --- | --- | --- | --- | --- | --- | --- |
| NCI-H1915 | 0.958 | 1.03 | 1.04 | 0.998 | 1.02 | 0.261 | 0.288 | 0.268 | 0.245 | 0.289 | 0.348 | 0.396 | 0.43 | 0.367 | 0.368 | 0.291 | 0.291 | 0.304 | 0.298 | 0.261 |
| NCI-H647 | 0.939 | 1.26 | 1.19 | 1.13 | 0.913 | 0.536 | 0.517 | 0.655 | 0.639 | 0.396 | 0.489 | 0.72 | 0.542 | 0.55 | 0.471 | 0.367 | 0.479 | 0.547 | 0.426 | 0.408 |
| PC-3 [JPC-3] | 0.456 | 0.459 | 0.494 | 0.464 | 0.5 | 1.05 | 1.12 | 1.22 | 1.12 | 0.926 | 0.478 | 0.484 | 0.471 | 0.502 | 0.468 | 0.754 | 0.715 | 0.667 | 0.772 | 0.59 |
| NCI-H1793 |  | 0.675 | 0.828 | 0.651 | 0.484 |  | 0.726 | 1.03 | 1 | 0.706 | 0.349 | 0.319 | 0.483 | 0.326 | 0.333 |  | 0.364 | 0.377 | 0.514 | 0.331 |
| NCI-H1993 | 0.835 | 0.889 | 0.834 | 0.836 | 0.849 | 1.02 | 0.979 | 1.12 | 0.844 | 1.03 | 0.541 | 0.501 | 0.545 | 0.479 | 0.53 | 0.51 | 0.53 | 0.448 | 0.424 | 0.651 |
| NCI-H1437 | 0.789 | 1.1 | 0.928 | 0.793 | 1.03 | 0.623 | 0.641 | 0.614 | 0.61 | 0.647 | 0.362 | 0.314 | 0.321 | 0.297 | 0.323 | 0.478 | 0.539 | 0.611 | 0.607 | 0.537 |
| NCI-H322M | 0.594 | 0.649 | 0.583 | 0.655 | 0.633 | 0.83 | 0.771 | 0.798 | 0.802 | 0.745 | 0.736 | 0.857 |  | 0.855 | 0.7 | 0.536 | 0.516 | 0.554 | 0.477 | 0.525 |
| LOU-NH91 | 0.732 | 0.839 | 0.828 | 0.816 | 0.764 | 0.899 | 0.903 | 1.01 | 1.05 | 0.875 | 0.734 | 0.699 | 0.765 | 0.825 | 0.764 | 0.791 | 0.811 | 0.844 | 0.823 | 0.787 |
| EPLC-272H | 0.837 | 1.02 | 1.14 | 0.937 | 0.915 | 0.764 | 0.998 | 1.01 | 0.746 | 0.388 | 0.335 | 0.334 | 0.324 | 0.313 | 0.263 | 0.253 | 0.271 | 0.287 | 0.283 | 0.288 |
| NCI-H2023 | 0.912 | 1.09 | 0.998 | 0.814 | 0.91 | 0.487 | 0.485 | 0.518 | 0.462 | 0.465 | 0.391 | 0.446 | 0.519 | 0.459 | 0.385 | 0.425 | 0.615 | 0.614 | 0.454 | 0.444 |
| CAL-12T | 0.687 | 0.77 | 0.67 | 0.807 | 0.665 | 0.718 | 0.755 | 0.791 | 0.817 | 0.772 | 0.515 | 0.648 | 0.591 | 0.702 | 0.518 | 0.322 | 0.356 | 0.4 | 0.407 | 0.268 |
| NCI-H1755 | 1.04 | 1.08 | 1.09 | 1.07 | 1.02 | 0.859 | 0.881 | 0.93 | 0.961 | 0.91 | 0.574 | 0.672 | 0.675 | 0.692 | 0.642 | 0.763 | 0.768 | 0.92 | 0.736 | 0.767 |
| NCI-H3122 | 0.907 | 0.985 | 1.04 |  | 0.992 | 0.636 | 0.692 | 0.657 | 0.606 | 0.585 | 0.35 | 0.387 | 0.366 | 0.361 | 0.288 | 0.289 | 0.287 | 0.231 | 0.233 | 0.299 |
| NCI-H727 | 0.88 | 0.887 | 1.36 | 0.937 | 0.781 | 0.747 | 0.649 | 0.717 | 0.593 | 0.778 | 0.475 | 0.733 | 0.649 | 0.67 | 0.538 | 0.409 | 0.412 | 0.412 | 0.396 | 0.367 |
| COR-L 105 | 0.336 | 0.459 | 0.358 | 0.36 | 0.372 | 0.591 | 0.695 | 0.881 | 0.651 | 0.837 | 0.415 | 0.544 | 0.496 | 0.49 | 0.471 | 0.45 | 0.465 | 0.452 | 0.469 | 0.44 |
| H3255 | 0.231 | 0.313 | 0.227 | 0.259 | 0.236 | 0.541 | 0.605 | 0.6 | 0.593 | 0.56 | 0.4 | 0.383 | 0.344 | 0.411 | 0.365 | 0.611 | 0.658 | 0.652 | 0.614 | 0.597 |
